Columns and labels:
DYRK1A = DYRK1A (Homo sapiens, UniProt Q13627); experiment: KINOMEscan qPCR-based binding assay; conditions: for fold improvement in DYRK1A binding (Kd) as compared to hit 3–1: ratio of Kd
human β-cell [1] = conditions: cited from earlier work
human β-cell [2] = experiment: Human β-cell proliferation assay; type: cell-based; conditions: 5 μM, 96 hours, KI67 labeling of insulin-labeled cells, compared to vehicle-treated cells

COc1ccc2c(c1)[nH]c1c(C)nccc12 [Harmine, reference compound]
% DMSO Ctrl, DYRK1A (DYRK1A): < 1% | fold induction in human pancreatic β-cell proliferation (human β-cell [1]): 10–15 fold

O=c1[nH]c2ccc(C3=NN=C(NCc4cccnc4)SC3)cc2[nH]1 [3–13, N-(pyridine-3yl)methyl-5-(benzo[d]imidazol-2(3H)-one)-6H-1,3,4-thiadiazin-2-amine]
fold improvement in DYRK1A binding (Kd) as compared to hit 3–1 (DYRK1A): 5 fold

CC(NC1=NN=C(c2ccc3[nH]c(=O)[nH]c3c2)CS1)c1ccccc1 (centres unmarked) [3–16, N-(1-phenylethyl)-5-(benzo[d]imidazol-2(3H)-one)-6H-1,3,4-thiadiazin-2-amine]
fold improvement in DYRK1A binding (Kd) as compared to hit 3–1 (DYRK1A): 4 fold

O=c1[nH]c2ccc(C3=NN=C(NCc4ccc(F)cc4)SC3)cc2[nH]1 [Compound 3–5, N-(4-fluorobenzyl)-5-(benzo[d]imidazol-2(3H)-one)-6H-1,3,4-thiadiazin-2-amine]
human β-cell proliferation (human β-cell [2]): induced human β-cell proliferation
